Here are results for 104 molecules from PubChem BioAssay AID1996.

One may read the kinetic solubility as the concentration staying in solution when a stock, usually in DMSO, is diluted into the medium.

In brackets after ≈: the same amount, converted by molar mass.

For this data set the following is noted: buffer; pH 7.4; 200.0 µM.
Molecule `CCOC(=O)C1CCCN(CC(=O)Nc2cccc(C(C)=O)c2)C1` (centres undefined) had a kinetic solubility of 46 µg/mL (≈ 138 µM).
For the molecule `COc1ccc(CCNC(=O)c2ccc(OCc3c(C)noc3C)c(OC)c2)cc1`, the kinetic solubility turned out to be 2.3 µg/mL (≈ 5.6 µM).
As for `Cc1cc(C(=O)Cn2c(CO)nc3ccccc32)c(C)n1C`, the figure is greater than 44.6 µg/mL; as for `Cl.c1ccc2c(c1)CCCC2C1=NCCN1` (centres undefined), greater than 35.5 µg/mL.
As for `COc1ccc([N+](=O)[O-])cc1NC(=O)c1ccccc1SC`, the figure is 0.4 µg/mL (≈ 1.26 µM).
As for `CC(Oc1ccc(Cl)cc1Cl)C(=O)Nc1ccc(OCC(=O)O)cc1` (centres undefined), the figure is greater than 57.6 µg/mL; as for `COC(=O)CS(=O)(=O)c1cc([N+](=O)[O-])ccc1NC(=O)OC`, 38.7 µg/mL (≈ 116 µM).
For the molecule `O=C(c1cc2cc(F)ccc2[nH]1)N1CCC(Cc2ccccc2)CC1`, the solubility (kinetic) was 1.3 µg/mL (≈ 3.86 µM).
As for `CCN(C(=O)COC(=O)c1ccc(Cl)cc1N)C1CCCCC1`, the figure is 2.7 µg/mL (≈ 7.97 µM).
On to `Cc1cccc(C)c1NC(=O)CN(C)C(=O)Cn1c(=O)cnc2ccccc21`, for which the kinetic solubility was 52.6 µg/mL (≈ 139 µM).
As for `CC(C)c1ccccc1NC(=S)NC(=O)C1CCCCC1`, the figure is 0.9 µg/mL (≈ 2.96 µM); as for `CCN(CC(=O)Nc1ccc(NC(C)=O)cc1)C(=O)c1c(C)nn(-c2ccc(F)cc2)c1Cl`, greater than 70.8 µg/mL; as for `CCC(=O)c1ccc(OCC(=O)N2CCN(CC(=O)Nc3ccc(C)cc3)CC2)cc1`, greater than 63.5 µg/mL.
To `CCN(c1ccccc1)c1nc(=O)c2cccnc2s1` belongs greater than 42.5 µg/mL; to `Cn1ccnc1SCC(=O)Nc1ccc([N+](=O)[O-])cn1`, greater than 44 µg/mL.
To `Cc1ccc(C)c(S(=O)(=O)Nc2ccc3[nH]c(=O)[nH]c3c2)c1` belongs 10.4 µg/mL (≈ 32.8 µM); to `COc1ccc(CCNC(=O)CN(C)S(=O)(=O)c2ccc(OC)cc2)cc1`, greater than 58.9 µg/mL; to `CN(C(=O)c1ccc(Oc2ccc([N+](=O)[O-])cc2)cc1)C1CCCCC1`, 1 µg/mL (≈ 2.82 µM).
For the molecule `O=C([O-])c1ncc(Cl)c(Cl)c1Cl.[NH4+]`, the kinetic solubility is greater than 36.5 µg/mL.
To `CC1CCCCN1CCn1c(=S)[nH]c2cc3c(cc2c1=O)OCO3` (centres undefined) belongs greater than 52.1 µg/mL.
Molecule `Cc1ccc(NC(=O)CNC(=O)c2cccc(Cl)c2)nc1` displayed a solubility (kinetic) of 11.7 µg/mL (≈ 38.5 µM).
To `Clc1ccc(-c2csc(-c3ccncc3)n2)cc1` belongs 0.3 µg/mL (≈ 1.1 µM); to `Cc1cc(=O)oc(C)c1C(=O)Nc1ccccc1F`, 35.4 µg/mL (≈ 136 µM).
As for `Cc1cccc(NC(=O)NCC2CC2)c1`, the figure is greater than 30.6 µg/mL.
On to `Cc1ccc(NC(=O)Nc2cc(S(C)(=O)=O)ccc2Cl)cc1`, for which the solubility (kinetic) worked out at 1.1 µg/mL (≈ 3.25 µM).
To `CCN1C(=O)c2cccc3c(Cl)ccc(c23)C1=O` belongs 1 µg/mL (≈ 3.85 µM); to `CCN1CCN(C(=O)c2cc3cc(Cl)ccc3[nH]2)CC1`, greater than 43.8 µg/mL.
As for `CC(C)(C)NC(=O)CSCc1ccc(Br)cc1`, the figure is greater than 47.4 µg/mL.
As for `COC(=O)n1c(=O)oc2ccc(S(=O)(=O)N3CCCCC3)cc21`, the solubility (kinetic) is greater than 51.1 µg/mL.
For the molecule `CC1CCCC(C)N1C(=O)COC(=O)c1ccc(Br)o1` (centres undefined), the solubility (kinetic) is greater than 51.6 µg/mL.
To `Cc1ccc(C(=O)NC2CCCC2)s1` belongs 29.9 µg/mL (≈ 143 µM); to `Cc1ccc(S(=O)(=O)NCCOc2cc(C)ccc2C)cc1`, 14.4 µg/mL (≈ 45.1 µM); to `Cc1ccc(S(=O)(=O)CCC(=O)Nc2cccc(Cl)c2)cc1`, 23.9 µg/mL (≈ 70.7 µM).
To `CCn1c(C)nc([N+](=O)[O-])c1C(=O)O` belongs greater than 29.9 µg/mL; to `O=C(CCNS(=O)(=O)c1ccccc1F)OCc1ccccc1Cl`, 34.5 µg/mL (≈ 92.8 µM).
To `COc1ccccc1NC(=O)c1cccc2c(Br)cccc12` belongs less than 0.8 µg/mL.
Take `O=C1CCCCCCCN1Cc1ccccc1`: the solubility (kinetic) is greater than 34.7 µg/mL.
To `O=C(O)C1CCCCC1C(=O)NCCc1ccc(F)cc1` (centres undefined) belongs greater than 44 µg/mL.
On to `CCn1c(N)c(Br)c(=O)[nH]c1=O`, for which the kinetic solubility is greater than 35.1 µg/mL.
As for `O=C(Nc1ccncc1)Nc1cccc(F)c1`, the figure is greater than 34.7 µg/mL; as for `Clc1ccc2c(c1)CCc1cccnc1C2=C1CCNCC1`, 21.6 µg/mL (≈ 69.5 µM); as for `COC(=O)c1cc(OC)nc2ccc(Br)cc12`, less than 0.6 µg/mL.
As for `CCCS(=O)(=O)N1CCCC(C(=O)NCCc2ccccc2)C1` (centres undefined), the figure is 48.5 µg/mL (≈ 143 µM); as for `CCCCOc1ccc(C2(C)NC(=O)N(C)C2=O)cc1` (centres undefined), greater than 41.5 µg/mL; as for `Cn1cnnc1SCC(=O)c1ccc2c(c1)NC(=O)CO2`, greater than 45.6 µg/mL.
As for `COc1ccc(C(=O)NC(=S)NC(C)c2ccccc2)cc1` (centres undefined), the figure is 2.6 µg/mL (≈ 8.27 µM); as for `N#C/C(=C\c1cccnc1)C(=O)Nc1ccc(SC(F)F)cc1`, 8 µg/mL (≈ 24.1 µM).
In turn, `O=C(NCCO)N1c2ccccc2Sc2ccccc21` yielded a kinetic solubility greater than 43 µg/mL.
As for `Cc1ccc(NC(=O)CN(C)C(=O)C2CCC2)cc1`, the figure is greater than 39.1 µg/mL; as for `COc1ccc(-c2ccc(CCC(=O)O)n2-c2ccccc2O)cc1`, greater than 50.6 µg/mL.
Consider `O=C(Nc1cccc2c1CCCC2)c1cccc(F)c1`, for which the solubility (kinetic) is less than 0.6 µg/mL.
To `O=C(/C=C/c1ccccc1)OCc1cncs1` belongs 32.2 µg/mL (≈ 131 µM).
Molecule `Cc1nc(NC(=O)CSC2=NCCS2)sc1C(=O)N(C)C` yielded a kinetic solubility greater than 51.7 µg/mL.
To `COc1ccc(OCC(=O)N2CCc3ccccc3C2)cc1` belongs 29.8 µg/mL (≈ 100 µM); to `COc1ccc(CNC(=O)COC(=O)c2ccc(C)c(S(=O)(=O)N3CCOCC3)c2)cc1`, 7.8 µg/mL (≈ 16.9 µM).
To `CCN(CC(=O)NCc1ccc(Cl)cc1)C(=O)c1sccc1C` belongs greater than 52.6 µg/mL.
As for `C/C(=C\C(=O)c1ncc(C(F)(F)F)cc1Cl)N(C)C`, the figure is 41 µg/mL (≈ 140 µM).
The molecule `O=C(Nc1cccc(Cl)c1)Nc1ccc2nccnc2c1` gave a kinetic solubility of 1.7 µg/mL (≈ 5.69 µM).
As for `Cc1cc(C(=O)NCc2ccccc2Cl)c2ccccc2n1`, the figure is 4.1 µg/mL (≈ 13.2 µM); as for `C[N+](C)(C)CCCCCC[N+](C)(C)C.[Br-]`, greater than 54.3 µg/mL; as for `COC(=O)Nc1ccc(S(=O)(=O)N2CCCC(C(=O)O)C2)cc1` (centres undefined), 50.4 µg/mL (≈ 147 µM).
As to `CN(CC(=O)NC(=O)NC1CCCCC1)c1ccccc1`, the kinetic solubility was found to be 6.7 µg/mL (≈ 23.2 µM).
To `CCOc1ccccc1NC(=S)NCCCn1ccnc1` belongs 42.1 µg/mL (≈ 138 µM); to `CCCc1cc(=O)[nH]c(SCCc2ccccc2)n1`, 17.4 µg/mL (≈ 63.4 µM); to `Cc1cccc(Nc2nc(CC(=O)O)cs2)c1`, 24.6 µg/mL (≈ 99.1 µM).
Molecule `Cc1nnc(NC(=O)CSc2nccn2-c2ccc(F)cc2)s1` registered a kinetic solubility greater than 52.4 µg/mL.
As for `S=C(Nc1ccccc1)NC1CCN(Cc2ccccc2)CC1`, the figure is greater than 48.8 µg/mL; as for `CCOc1ccc(C(CC(=O)O)NC(=O)Cc2ccc(Cl)cc2)cc1` (centres undefined), greater than 54.3 µg/mL.
As for `COc1ccc(NC(=O)NC(=O)c2ccccc2)cc1`, the figure is 1.3 µg/mL (≈ 4.81 µM); as for `Cc1ccc(CSc2nccc(-c3c(C)nc4ccccn34)n2)cc1`, 1.6 µg/mL (≈ 4.62 µM).
As for `O=C(COC(=O)CCC(=O)c1ccc(Cl)cc1)NCCc1ccccc1`, the figure is 5.7 µg/mL (≈ 15.2 µM); as for `O=C(N/N=C/c1cccc(O)c1)c1ccccc1O`, greater than 38.4 µg/mL.
In turn, `Cc1ccccc1CNCCCSc1ncccn1.Cl` gave a solubility (kinetic) of 35.2 µg/mL.
As for `CC(C)N(CCn1cnc2c([nH]c3ccccc32)c1=O)C(C)C`, the figure is 24.5 µg/mL (≈ 78.4 µM); as for `S=C(NCCc1ccccc1)Nc1c(Cl)cccc1Cl`, 44.3 µg/mL (≈ 136 µM); as for `CC(=O)c1sc2nsc(SCCN3CCOCC3)c2c1N`, greater than 51.5 µg/mL.
As for `O=c1c([N+](=O)[O-])cccn1Cc1ccccc1Cl`, the figure is greater than 39.7 µg/mL; as for `CCCOc1ccc(Oc2nc(-c3ccncc3)nc3ccccc23)cc1`, less than 0.3 µg/mL; as for `CS(=O)(=O)N1Cc2ccccc2CC1C(=O)O` (centres undefined), greater than 38.3 µg/mL.
As for `Cc1[nH]c2ccccc2c1/C=C(\C#N)C(=O)NC1CC1`, the figure is 6.8 µg/mL (≈ 25.6 µM); as for `Cc1cnc(C(=O)OCC(=O)N(Cc2ccccc2)C(C)(C)C)cn1`, greater than 51.2 µg/mL.
As to `CCC1CN(C(=O)NCc2ccccc2)c2cc(Cl)ccc2O1` (centres undefined), the kinetic solubility was less than 0.4 µg/mL.
`COCCn1c(C)cc(C(=O)COC(=O)/C=C/c2ccc(OC)cc2OC)c1C` yielded a solubility (kinetic) of 2.7 µg/mL (≈ 6.73 µM).
As for `O=C(NCc1cccnc1)c1ccc(Br)s1`, the figure is greater than 44.6 µg/mL.
To `Cc1ccccc1CN1CCN(CC(=O)NCc2ccccc2)CC1` belongs greater than 50.6 µg/mL; to `Cc1[nH]c(SCC(=O)c2c(N)n(C)c(=O)n(C)c2=O)nc1Cc1ccccc1`, greater than 59.9 µg/mL; to `N#Cc1ccc(OCC(=O)OCC(=O)c2ccc[nH]2)cc1`, greater than 42.6 µg/mL.
To `O=C(CNC(=O)c1cccs1)NCC(=O)OCC(=O)c1ccccc1` belongs greater than 54.1 µg/mL.
Molecule `O=C(NCc1ccco1)c1ccc2c(c1)N(Cc1ccccc1)CCS2` showed a solubility (kinetic) of 12.9 µg/mL (≈ 35.4 µM).
As for `COc1ccc(C(=O)C2CCCN(C(=O)C3=CCCC3)C2)cc1OC` (centres undefined), the figure is greater than 51.5 µg/mL; as for `O=C(Nc1cccnc1)c1cc2cc(Br)ccc2o1`, 0.9 µg/mL (≈ 2.84 µM).
To `Cc1nc(NC(=O)c2cnccn2)ccc1Br` belongs 7.8 µg/mL (≈ 26.6 µM).
To `COc1ccc2cc(C3OCCO3)c(Cl)nc2c1` belongs 32.1 µg/mL (≈ 121 µM); to `O=c1oc(Nc2cccc(Cl)c2)nc2ccccc12`, 0.5 µg/mL (≈ 1.83 µM).
Regarding `Cc1ccc(S(=O)(=O)N2CCN(C(C)CC(=O)O)CC2)cc1` (centres undefined), the kinetic solubility was determined as 32.9 µg/mL (≈ 101 µM).
The molecule `CCOc1ccc(CSCCNC(=S)Nc2ccc(OC)cc2)cc1` had a solubility (kinetic) of 1.1 µg/mL (≈ 2.92 µM).
As for `CC(C)(C)c1ccc(N2C(=O)CC(c3ccccc3)C2=O)cc1` (centres undefined), the figure is less than 0.7 µg/mL; as for `O=C(c1ccco1)N1CCC(N2CCN(c3ccccc3)CC2)CC1`, 43.8 µg/mL (≈ 129 µM); as for `Cn1c(N)c(C(=O)COC(=O)c2ccccc2C(=O)c2ccc(Cl)cc2)c(=O)n(C)c1=O`, 6.3 µg/mL (≈ 13.8 µM).
As for `CC(=O)N1CCN(CC(=O)Nc2cc(F)ccc2C)CC1`, the figure is greater than 44 µg/mL; as for `COc1ccccc1C(=O)NCCCNC(=O)c1cccnc1`, 36.8 µg/mL (≈ 117 µM); as for `CC(C)CC(NC(N)=O)C(=O)Nc1ccc2c(c1)OCO2` (centres undefined), greater than 44 µg/mL.
As for `CCc1nc2sc3c(=O)[nH]cnc3c2c2c1CSC(C)(C)C2`, the figure is 16.7 µg/mL (≈ 50.4 µM).
In the case of `c1ccc2sc(NCC3CCCO3)nc2c1` (centres undefined), the solubility (kinetic) is greater than 35.1 µg/mL.
